From US12246068B2, “Enzymatically activatable peptide-redox modulator conjugates and use thereof” (BRANDEIS UNIVERSITY, priority 2017, dated 2025)
Where a SMILES comes first, the peptide text is derived from it. [ ]: non-standard residue; d: D form. The star is where a group is joined. X1 = O=C(CCC[P+](c1ccccc1)(c1ccccc1)c1ccccc1)*; d(pY) = N[C@H](Cc1ccc(OP(=O)(O)O)cc1)C(=O)O; pY = N[C@@H](Cc1ccc(OP(=O)(O)O)cc1)C(=O)O; NBD = O=[N+]([O-])c1ccc(*)c2nonc12; Cbz = O=C(OCc1ccccc1)*; βAla = NCCC(=O)O; CH2F = FC*

Columns and labels:
[1] = test system: T1, L-1P (NBD-βA-FFpYK, L enantiomer, with TPP on the ε-amino group of lysine)
T1 sequence: XFFXK

[2] = test system: T2, L-2P (NBD-βA-FFpYK, L enantiomer, with acetyl on the ε-amine of lysine)
T2 sequence: XFFXK

[3] = test system: T3, D-2P (NBD-βA-FFpYK, D enantiomer, with acetyl on the ε-amine of lysine)
T3 sequence: XFFXK

[4] = test system: T4, D-1P (NBD-βA-FFpYK, D enantiomer, with TPP on the ε-amino group of lysine)
T4 sequence: XFFXK

[5] = test system: HS5 cells; assay: MTT cell viability assay, HS5; assay type: cell-based, human; settings: 100 μM
Experimental: (§1) Saos2, HeLa, HepG2, T98G, MCF-7 and HS-5 cells were purchased from American-type Culture Collection (ATCC, USA). Saos2 cells were cultured in Macyo's 5A medium supplemented with 15% v/v fetal bovine serum, 100 U/mL penicillin and 100 μg/mL streptomycin. HeLa, HepG2, T98G, MCF-7 cells were cultured in MEM Medium supplemented with 10% v/v fetal bovine serum, HS-5 cells were cultured in Dulbecco's Modified Eagle's medium (DMEM) supplemented with 10% v fetal bovine serum (FBS), 100 U/mL penicillin and 100 μg/mL streptomycin. All cells were cultured at 37° C. in a humidified atmosphere of 5% CO2.
For the MTT Assay, all cells were seeded in a 96-well plate with the density of 1*10^4 cells per-well (total medium volume of 100 μL). 24 hours post seeding, the solutions with a serial of concentrations (5 concentrations) of different precursors were added to each well. Cells without the treatment of the precursors were used as the control. At designated time (24/48/72 hours), 10 μL MTT solution (5 mg/mL) was added to each well and incubated at 37° C. for another 4 h, and then 100 μL of SDS-HCl solution was added to stop the reduction reaction and dissolve the purple formazan. The absorbance of each well at 595 nm was measured by a multimode microplate reader. The cytotoxicity assay was performed three times and the average value of the three measurements was taken. […]

[6] = test system: selected Saos2 cell line; assay: MTT assay on selected Saos2 cells after five weeks stimulation; assay type: cell-based, human
Experimental: (§2) For the MTT Assay, all cells were seeded in a 96-well plate with the density of 1*10^4 cells per-well (total medium volume of 100 μL). 24 hours post seeding, the solutions with a serial of concentrations (5 concentrations) of different precursors were added to each well. Cells without the treatment of the precursors were used as the control. At designated time (24/48/72 hours), 10 μL MTT solution (5 mg/mL) was added to each well and incubated at 37° C. for another 4 h, and then 100 μL of SDS-HCl solution was added to stop the reduction reaction and dissolve the purple formazan. The absorbance of each well at 595 nm was measured by a multimode microplate reader. The cytotoxicity assay was performed three times and the average value of the three measurements was taken.
Based on the above mechanism of cell death showing that L-1P (or D-1P) activates multiple death signaling pathways, it is believed that cancer cells unlikely would be able to evolve resistance toward this multiple targeting strategy. […] Such a plasticity should minimize the path to drug resistance. […]

[7] = test system: Saos2 cells; assay: MTT cell viability assay, Saos2; assay type: cell-based, human; settings: for IC50 against Saos2 cells / IC50: unstimulated Saos2; for IC50: read-out: IC50 against Saos2 cells; for cytotoxicity against Saos2 cell: even at 500 μM; for cytotoxicity to Saos2 cells: formed from the precursor by exogenous ALP, concentrations up to 200 μM
Experimental: as §1, §2
To investigate the cellular response to all the precursors, an MTT (3-(4,5-dimethylthiazol-2-yl)-2,5-diphenyl tetrazolium bromide) assay (Gerlier et al., J. Immunol. Methods 94:57 (1986), which is hereby incorporated by reference in its entirety) was first used to examine the viability of human osteosarcoma cells (Saos2, which expresses high level ALP (Farley et al., Metabolism 40:664 (1991), which is hereby incorporated by reference in its entirety)) cultured with the precursors. As a control, the viability of normal human bone marrow stromal cells (HS5) that express low level of ALP on cell surface was also examined (Zhou et al., Chem 1:246 (2016), which is hereby incorporated by reference in its entirety). […] In the presence of exogenous ALP, L-1P (or D-1P) turns into L-1 (or D-1), which is innocuous to Saos2 cells at the concentrations up to 200 μM. […] To investigate the retention of L-1 (or D-1) in the Saos2 cells, the cells were incubated with L-1P (D-1P, 50 μM) for different times. […] On the contrary, the concentration of D-1 decreases little after 6 h incubation. Moreover, the intracellular concentration of D-1 is 3.5 fold of that of L-1 at 6 h incubation, but the ratio increases to 10 fold at 24 h incubation (FIG. 8B).
Three kinds of established ALP inhibitors were used: L-phenylalanine (L-Phe) (Borgers, M. J., Histochem. Cytochem. 21:812 (1973), which is hereby incorporated by reference in its entirety), an efficient uncompetitive inhibitor of placental alkaline phosphatase (PLAP) levamisole, a well-known uncompetitive inhibitor of tissue-nonspecific alkaline phosphatase (TNAP) (Borgers, M. J., Histochem. Cytochem. 21:812 (1973), which is hereby incorporated by reference in its entirety) and CinnGEL 2Me (Zhu et al., Cancer Res. 67:10129 (2007), which is hereby incorporated by reference in its entirety), an inhibitor of protein tyrosine phosphatase (PTP1B) that localizes at the cytoplasmic face of the endoplasmic reticulum. […] Moreover, the PTP1B inhibitor (i.e., CinnGEL 2Me) is unable to rescue the cells, supporting the mechanism in FIG. 1 that EISA on the cell surface is the key processes for converting L-1P and D-1P to L-1 and D-1, respectively. To further confirm the role of ALPs on cell surface, the precursors were incubated together with ALP, which serves as an exogenous enzyme. The addition of ALP almost eliminates the cytotoxicity of the precursors. […]

[8] = test system: ALP; assay: ALP catalyzed dephosphorylation of the precursors; assay type: biochemical; settings: alkaline phosphatase (ALP), isolated enzyme; substrate 0.1 wt %, ALP 0.1 U/mL, 37° C.; read-out: t1/2 of ALP catalyzed dephosphorylation (converted)
Experimental: After obtaining all the precursors in Example 1, their behaviors were evaluated for EISA in vitro by using TEM and static light scattering (SLS) to examine the nanostructures formed before and after the addition of ALP into the solutions of the precursors. […] As a contrast, D-1P (50 μM) forms slightly more regular fibrous structures with diameter of 8±2 nm, which then interact with each other to form dense 2D/3D networks. […] After 24 h, the percentages of enzymatic dephosphorylation of D-1P and L-1P are about 90% and 80%, respectively. […] After being formed by dephosphorylation, L-1 and D-1 form different nanostructures. […] Similar to L-1, D-1 forms aggregated hollow colloids with a larger mean diameter (106±2 nm) and slightly thicker layers (thickness of 6±2 nm). L-2P or D-2P (50 μM) forms amorphous aggregates after dissolving in PBS buffer (pH=7.4) (FIG. 5). While the addition of ALP converts L-2P to L-2 to form uniform nanofibers with diameter of 9±2 nm, the enzymatic conversion of D-2P to D-2 results in nanoscale aggregates with diameter of 16±2 nm. […] As a charged, steric-hindered motif being connected to the peptide backbone via a relatively flexible linker, TPP disrupts intermolecular packing to disfavor the formation of long nanofibers, but it promotes interparticle interaction to favor polymorphic aggregates before and after enzymatic dephosphorylation. […]

[9] = 100 μM, 48 h, with levamisole (1 mM)
[10] = 100 μM, 48 h, without inhibitor
[11] = 200 μM, 48 h, with levamisole (1 mM)
[12] = 200 μM, 48 h, without inhibitor
[13] = co-incubated with the targeting motif TPP (3), 48 h

alkaline phosphatase
percentage of enzymatic dephosphorylation after 24 h [1]: the percentages of enzymatic dephosphorylation of D-1P and L-1P are about 90% and 80%, respectively
t1/2 of ALP catalyzed dephosphorylation (substrate 0.1 wt %, ALP 0.1 U/mL) [1]: The t1/2 was determined to be 0.55 h and 1.14 h for D-1P and L-1P, respectively
enzymatic conversion (dephosphorylation) seen by TEM [2]: the addition of ALP converts L-2P to L-2 to form uniform nanofibers
enzymatic conversion (dephosphorylation) seen by TEM [3]: the enzymatic conversion of D-2P to D-2 results in nanoscale aggregates
percentage of enzymatic dephosphorylation after 24 h [4]: the percentages of enzymatic dephosphorylation of D-1P and L-1P are about 90% and 80%, respectively
t1/2 of ALP catalyzed dephosphorylation (substrate 0.1 wt %, ALP 0.1 U/mL) [4]: The t1/2 was determined to be 0.55 h and 1.14 h for D-1P and L-1P, respectively

O=C(CCC[P+](c1ccccc1)(c1ccccc1)c1ccccc1)NCCCC[C@H](NC(=O)[C@H](Cc1ccc(OP(=O)(O)O)cc1)NC(=O)[C@H](Cc1ccccc1)NC(=O)[C@H](Cc1ccccc1)NC(=O)CCNc1ccc([N+](=O)[O-])c2nonc12)C(=O)O [L-1P] ({NBD-βAla}-FF[pY]K(X1)-OH)
cytotoxicity against HS5 cells [5]: almost innocuous
cell viability of the selected cells ([6]; 50 μM, 48 h, after five weeks stimulation): 20.5%
cell viability of unstimulated Saos2 ([7]; 50 μM, 48 h): 71.7%
cell viability of Saos2 cells [7, 9]: 65.3%
cell viability of Saos2 cells [7, 10]: 21.6%
cell viability of Saos2 cells [7, 11]: 50.5%
cell viability of Saos2 cells [7, 12]: 2.1%
IC50 against Saos2 cells ([7]; 48 h): 76.1 ± 2.5 µg/mL
IC50 ([7]; 48 h): 61 ± 2 µM
half-life at 0.1 wt % [8]: 68.4 min

CC(=O)NCCCC[C@@H](NC(=O)[C@@H](Cc1ccc(OP(=O)(O)O)cc1)NC(=O)[C@@H](Cc1ccccc1)NC(=O)[C@@H](Cc1ccccc1)NC(=O)CCNc1ccc([N+](=O)[O-])c2nonc12)C(=O)O [D-2P] ({NBD-βAla}-[dF][dF][d(pY)][dK](Ac)-OH)
cytotoxicity against Saos2 cell ([7]; by itself, 48 h): hardly exhibits cytotoxicity
cytotoxicity against Saos2 cell [7, 13]: hardly exhibits cytotoxicity

CC(=O)NCCCC[C@H](NC(=O)[C@H](Cc1ccc(OP(=O)(O)O)cc1)NC(=O)[C@H](Cc1ccccc1)NC(=O)[C@H](Cc1ccccc1)NC(=O)CCNc1ccc([N+](=O)[O-])c2nonc12)C(=O)O [L-2P] ({NBD-βAla}-FF[pY]K(Ac)-OH)
cytotoxicity against Saos2 cell ([7]; by itself, 48 h): hardly exhibits cytotoxicity
cytotoxicity against Saos2 cell [7, 13]: hardly exhibits cytotoxicity

O=C(CCC[P+](c1ccccc1)(c1ccccc1)c1ccccc1)NCCCC[C@@H](NC(=O)[C@@H](Cc1ccc(OP(=O)(O)O)cc1)NC(=O)[C@@H](Cc1ccccc1)NC(=O)[C@@H](Cc1ccccc1)NC(=O)CCNc1ccc([N+](=O)[O-])c2nonc12)C(=O)O [D-1P] ({NBD-βAla}-[dF][dF][d(pY)][dK](X1)-OH)
cytotoxicity against HS5 cells [5]: almost innocuous
IC50 ([6]; cells selected by five weeks stimulation of D-1P (10 to 50 μM), read-out: IC50 against Saos2 cells after five weeks stimulation): 35.2 µM
cell viability of Saos2 cells [7, 9]: 66.0%
cell viability of Saos2 cells [7, 10]: 11.5%
cell viability of Saos2 cells [7, 11]: 53.3%
cell viability of Saos2 cells [7, 12]: 1.8%
IC50 against Saos2 cells ([7]; 48 h): 57.4 ± 2.5 µg/mL
IC50 ([7]; 48 h): 46 ± 2 µM
half-life at 0.1 wt % [8]: 33 min

O=C(CCC[P+](c1ccccc1)(c1ccccc1)c1ccccc1)NCCCC[C@@H](NC(=O)[C@@H](Cc1ccc(O)cc1)NC(=O)[C@@H](Cc1ccccc1)NC(=O)[C@@H](Cc1ccccc1)NC(=O)CCNc1ccc([N+](=O)[O-])c2nonc12)C(=O)O [D-1] ({NBD-βAla}-[dF][dF][dY][dK](X1)-OH)
cytotoxicity to Saos2 cells [7]: innocuous

O=C(CCC[P+](c1ccccc1)(c1ccccc1)c1ccccc1)NCCCC[C@H](NC(=O)[C@H](Cc1ccc(O)cc1)NC(=O)[C@H](Cc1ccccc1)NC(=O)[C@H](Cc1ccccc1)NC(=O)CCNc1ccc([N+](=O)[O-])c2nonc12)C(=O)O [L-1] ({NBD-βAla}-FFYK(X1)-OH)
cytotoxicity to Saos2 cells [7]: innocuous

COC(=O)C[C@H](NC(=O)[C@H](C)NC(=O)[C@@H](NC(=O)OCc1ccccc1)C(C)C)C(=O)CF [zVAD-fmk, reference compound] (Cbz-Val-Ala-Asp(OMe)-CH2F)
toxicity on Saos2 cells ([7]; 45 μM, by itself): no toxicity
